Experimental data as given in BindingDB's records for doi:10.1021/jm060595u (University of Bristol, 2006).

Experiment: Displacement of [3H]Cl-DPDPE from delta receptor in guinea pig brain homogenate

`COc1ccc2c3c1O[C@H]1C(=O)CC[C@@]4(NC(=O)CCc5ccc(Cl)cc5)[C@@H](C2)N(CC2CC2)CC[C@]314` [N-cyclopropylmethyl-14beta-[3'-(4'-chlorophenyl)propanamido]-7,8-dihydronorcodeinone] gave a Ki of 5.1 nM.
Compound `O=C(CCc1ccc(Cl)cc1)N[C@@]12CCC(=O)[C@@H]3Oc4c(O)ccc5c4[C@@]31CCN(CC1CC1)[C@@H]2C5` [N-cyclopropylmethyl-14beta-[3'-(4'-chlorophenyl)propanamido]-7,8-dihydronormorphinone] has a Ki of 0.6 nM.
Work on `O=C1CC[C@@]2(NCCCc3ccc(Cl)cc3)[C@H]3Cc4ccc(O)c5c4[C@@]2(CCN3CC2CC2)[C@H]1O5` [N-cyclopropylmethyl-14beta-[3'-(4'-chlorophenyl)propylamino]-7,8-dihydronormorphinone] yielded a Ki of 1.1 nM.
Compound `COc1ccc2c3c1O[C@H]1C(=O)CC[C@@]4(NCCCc5ccc(Cl)cc5)[C@@H](C2)N(CC2CC2)CC[C@]314` [N-cyclopropylmethyl-14beta-[3'-(4'-chlorophenyl)propylamino]-7,8-dihydronorcodeinone] has a Ki of 31 nM.
